Source: ChEMBL document CHEMBL1201862, “PubChem BioAssay data set” (2004)
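Following 48 hours of exposure in 96-well plates, responses at five concentrations were used to interpolate endpoints linearly. Abbreviation: GI50, concentration required for 50% inhibition of growth.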 Active and inactive are the calls of the source. Cut-off read from the data, not from the text of the source: active = GI50 up to about 1.1 µM and inactive = higher.

Columns and labels:
Experiment in all cases: NCI-60 cell line screen, 48 h
[1] = system: T47D
[2] = system: HCT-15
[3] = system: OVCAR-4
[4] = system: CCRF-CEM
[5] = system: NCI-H226
[6] = system: MDA-N
[7] = system: NCI/ADR-RES
[8] = system: MCF7
[9] = system: HOP-92
[10] = system: SN12C
[11] = system: HL-60
[12] = system: COLO 205
[13] = system: IGROV-1
[14] = system: HCC 2998
[15] = system: SK-OV-3
[16] = system: 786-0
[17] = system: KM12
[18] = system: M14
[19] = system: SNB-75
[20] = system: M19-MEL

Row | SMILES | GI50 [1] | GI50 [2] [µM] | GI50 [3] | GI50 [4] | GI50 [5] | GI50 [6] | GI50 [7] | GI50 [8] | GI50 [9] | GI50 [10] | GI50 [11] | GI50 [12] | GI50 [13] | GI50 [14] | GI50 [15] | GI50 [16] | GI50 [17] | GI50 [18] | GI50 [19] | GI50 [20]
1 | CCOC(=O)c1cc(C2(O)CCN(CC(C)CC)C2=O)c(-c2cc(C)no2)[nH]1 (stereo not drawn) | > 100 µM (inactive) | > 100 | > 100 µM (inactive) | > 100 µM (inactive) | > 100 µM (inactive) | > 100 µM (inactive) | > 100 µM (inactive) | > 100 µM (inactive) | > 100 µM (inactive) | > 100 µM (inactive) | > 100 µM (inactive) | > 100 µM (inactive) | > 100 µM (inactive) | > 100 µM (inactive) | > 100 µM (inactive) | > 100 µM (inactive) | > 100 µM (inactive) | > 100 µM (inactive) | > 100 µM (inactive) | –
2 | CN(C)CC(O)c1ccc(Cl)c2ccccc12 (stereo not drawn) | 21 µM (inactive) | > 90.2 | 63.4 µM (inactive) | 20 µM (inactive) | > 27.3 µM (inactive) | 24.8 µM (inactive) | 81.5 µM (inactive) | 32.7 µM (inactive) | 14.2 µM (inactive) | 43.3 µM (inactive) | 9.12 µM (inactive) | 20.6 µM (inactive) | 39.5 µM (inactive) | 15.8 µM (inactive) | 74 µM (inactive) | 48.3 µM (inactive) | 50.4 µM (inactive) | 16.7 µM (inactive) | 17.4 µM (inactive) | –
3 | CCCCCCCCCCc1c2nc(c(CCCCCCCCCC)c3ccc([nH]3)c(CCCCCCCCCC)c3nc(c(CCCCCCCCCC)c4ccc1[nH]4)C=C3)C=C2 | > 100 µM (inactive) | > 100 | > 100 µM (inactive) | > 100 µM (inactive) | > 100 µM (inactive) | > 100 µM (inactive) | > 100 µM (inactive) | > 100 µM (inactive) | > 100 µM (inactive) | > 100 µM (inactive) | > 100 µM (inactive) | > 100 µM (inactive) | > 100 µM (inactive) | > 100 µM (inactive) | > 100 µM (inactive) | > 100 µM (inactive) | > 100 µM (inactive) | > 100 µM (inactive) | > 100 µM (inactive) | –
4 | OCCCNCC(O)c1ccc(OCc2ccccc2)c(OCc2ccccc2)c1 (stereo not drawn) | 15.6 µM (inactive) | 13.1 | 7.41 µM (inactive) | 8.15 µM (inactive) | 12.4 µM (inactive) | 9.64 µM (inactive) | 18.7 µM (inactive) | 8.04 µM (inactive) | 7.59 µM (inactive) | 15.3 µM (inactive) | 6.38 µM (inactive) | 4.76 µM (inactive) | 10.2 µM (inactive) | 5.3 µM (inactive) | 9.51 µM (inactive) | 7.48 µM (inactive) | 12.5 µM (inactive) | 17.1 µM (inactive) | 6.12 µM (inactive) | –
5 | Cc1cn(CCCCCCOC(=O)NC(CCCNC(N)=O)C(=O)O)c(=O)[nH]c1=O (stereo not drawn) | > 100 µM (inactive) | > 100 | > 100 µM (inactive) | > 100 µM (inactive) | > 100 µM (inactive) | > 100 µM (inactive) | > 100 µM (inactive) | > 100 µM (inactive) | > 100 µM (inactive) | > 100 µM (inactive) | > 100 µM (inactive) | > 100 µM (inactive) | > 100 µM (inactive) | > 100 µM (inactive) | > 100 µM (inactive) | > 100 µM (inactive) | > 100 µM (inactive) | > 100 µM (inactive) | > 100 µM (inactive) | –
6 | OCC1=CC(NC2CC(CO)C(O)C(O)C2O)C(O)C(O)C1O (stereo not drawn) | – | > 100 | – | > 100 µM (inactive) | 94.4 µM (inactive) | – | – | – | – | > 100 µM (inactive) | – | > 100 µM (inactive) | > 100 µM (inactive) | – | > 100 µM (inactive) | > 100 µM (inactive) | > 100 µM (inactive) | > 100 µM (inactive) | > 100 µM (inactive) | > 100 µM (inactive)
7 | COC(=O)/C=C1/OC(c2ccc(OC)cc2)=C(Cl)C1=O | 15.3 µM (inactive) | 17.5 | 16.3 µM (inactive) | 4.78 µM (inactive) | 21.9 µM (inactive) | 16.7 µM (inactive) | 25.8 µM (inactive) | 8.32 µM (inactive) | 23.1 µM (inactive) | 18.9 µM (inactive) | 3.8 µM (inactive) | 9.91 µM (inactive) | 16.9 µM (inactive) | 21.3 µM (inactive) | 16.7 µM (inactive) | 12.1 µM (inactive) | 18.1 µM (inactive) | 16.9 µM (inactive) | 17.9 µM (inactive) | –
8 | Cc1ccc(/N=N/c2c(O)ccc3cc(S(=O)(=O)O)ccc23)c(C)c1 | > 100 µM (inactive) | > 100 | > 100 µM (inactive) | > 100 µM (inactive) | > 100 µM (inactive) | > 100 µM (inactive) | > 100 µM (inactive) | > 100 µM (inactive) | > 100 µM (inactive) | > 100 µM (inactive) | 92.9 µM (inactive) | > 100 µM (inactive) | > 100 µM (inactive) | > 100 µM (inactive) | > 100 µM (inactive) | > 100 µM (inactive) | > 100 µM (inactive) | > 100 µM (inactive) | > 100 µM (inactive) | –
9 | COc1cc(C2c3cc4c(cc3OC(N3CCOCC3)C2C)OCO4)cc(OC)c1OC(C)=O (stereo not drawn) | 17.4 µM (inactive) | 15 | 57.3 µM (inactive) | 11.7 µM (inactive) | 17.7 µM (inactive) | 1.99 µM (inactive) | 4.69 µM (inactive) | 8.59 µM (inactive) | 23.9 µM (inactive) | 17.7 µM (inactive) | 4.65 µM (inactive) | 19.3 µM (inactive) | 14.2 µM (inactive) | 11.9 µM (inactive) | 11.3 µM (inactive) | 15.8 µM (inactive) | 5.35 µM (inactive) | 9.06 µM (inactive) | 3.74 µM (inactive) | –
10 | O=S(=O)(c1ccc2ccccc2c1)N1CCN(S(=O)(=O)c2ccc3ccccc3c2)CC1 | > 100 µM (inactive) | > 100 | > 100 µM (inactive) | > 100 µM (inactive) | > 100 µM (inactive) | > 100 µM (inactive) | > 100 µM (inactive) | > 100 µM (inactive) | 34.6 µM (inactive) | > 100 µM (inactive) | > 100 µM (inactive) | > 100 µM (inactive) | > 100 µM (inactive) | > 100 µM (inactive) | 51.3 µM (inactive) | > 100 µM (inactive) | > 100 µM (inactive) | > 100 µM (inactive) | 18.9 µM (inactive) | –
11 | CC(NC(=O)N(C)C)NC(=O)N(C)C | > 10 µM (inactive) | > 10 | > 10 µM (inactive) | > 10 µM (inactive) | > 10 µM (inactive) | > 10 µM (inactive) | > 10 µM (inactive) | > 10 µM (inactive) | > 10 µM (inactive) | > 10 µM (inactive) | > 10 µM (inactive) | > 10 µM (inactive) | > 10 µM (inactive) | > 10 µM (inactive) | > 10 µM (inactive) | > 10 µM (inactive) | > 10 µM (inactive) | > 10 µM (inactive) | > 10 µM (inactive) | –
12 | CC(C)=CCC[C@](C)(O)[C@H]1CC[C@]2(C)[C@@H]1[C@H](O)C[C@@H]1[C@@]3(C)CC[C@H](O[C@@H]4O[C@H](CO)[C@@H](O)[C@H](O)[C@H]4O)C(C)(C)[C@@H]3CC[C@]12C [GINSENOSIDE RH2] | 18.2 µM (inactive) | 17.5 | 21.5 µM (inactive) | 23.5 µM (inactive) | 17.6 µM (inactive) | 19.8 µM (inactive) | 25.1 µM (inactive) | 17.3 µM (inactive) | 18.7 µM (inactive) | 16.7 µM (inactive) | 21 µM (inactive) | 19.5 µM (inactive) | 16.3 µM (inactive) | 27.9 µM (inactive) | 18.5 µM (inactive) | 20.2 µM (inactive) | 17.6 µM (inactive) | 27.2 µM (inactive) | 19.1 µM (inactive) | –
13 | O=C1C=CC(=O)c2c1ccc1c3ccccc3n(-c3cccc([N+](=O)[O-])c3)c21 | 2.38 µM (inactive) | 2.59 | 2.81 µM (inactive) | 0.357 µM (active) | > 10 µM (inactive) | 2.2 µM (inactive) | > 5.58 µM (inactive) | 2.29 µM (inactive) | 2.09 µM (inactive) | 3.96 µM (inactive) | 0.474 µM (active) | 1.42 µM (inactive) | 5.81 µM (inactive) | > 10 µM (inactive) | > 10 µM (inactive) | 1.91 µM (inactive) | > 7.98 µM (inactive) | 1.73 µM (inactive) | > 10 µM (inactive) | –
14 | CC(C)=CCC/C(C)=C/CC/C(C)=C/CCN(C)CCO | 2.78 µM (inactive) | 3.95 | 13.9 µM (inactive) | 2.39 µM (inactive) | 14.9 µM (inactive) | 3.75 µM (inactive) | 12.4 µM (inactive) | 2.45 µM (inactive) | 3.32 µM (inactive) | 12.3 µM (inactive) | 1.95 µM (inactive) | 1.72 µM (inactive) | 2.94 µM (inactive) | 2.03 µM (inactive) | 15.1 µM (inactive) | 2.11 µM (inactive) | 2.75 µM (inactive) | 1.95 µM (inactive) | 7.43 µM (inactive) | –
15 | CC[C@@]1(O)C(=O)OCc2c1cc1n(c2=O)Cc2c-1nc1ccc(N)cc1c2CC[Si](C)(C)C | < 0.01 µM (active) | 0.0153 | 0.015 µM (active) | < 0.01 µM (active) | < 0.01 µM (active) | < 0.01 µM (active) | < 0.01 µM (active) | < 0.01 µM (active) | < 0.025 µM (active) | < 0.01 µM (active) | < 0.01 µM (active) | < 0.0164 µM (active) | < 0.01 µM (active) | < 0.0111 µM (active) | < 0.01 µM (active) | < 0.01 µM (active) | 0.0155 µM (active) | < 0.01 µM (active) | < 0.01 µM (active) | –
